The numbers were not newly measured in patent publication US6316473A, “Two surfactant-containing medicinal composition” (Fujisawa Pharmaceutical Co., Ltd., priority 1997, dated 2001), which cites them from elsewhere.

For the data set the following is noted: stated as well known.

Turning to `C=CC[C@@H]1/C=C(\C)C[C@H](C)C[C@H](OC)[C@H]2O[C@@](O)(C(=O)C(=O)N3CCCC[C@H]3C(=O)O[C@H](/C(C)=C/[C@@H]3CC[C@@H](O)[C@H](OC)C3)[C@H](C)[C@@H](O)CC1=O)[C@H](C)C[C@@H]2OC` [FK506, 17-allyl-1,14-dihydroxy-12-[2-(4-hydroxy-3-methoxycyclohexyl)-1-methylvinyl]-23,25-dimethoxy-13,19,21,27-tetramethyl-11,28-dioxa-4-azatricyclo[22.3. 1.0 4,9]octacos-18-ene-2,3,10,16-tetraone], the solubility in water result was “only sparingly soluble in water”.
